From ChEMBL document CHEMBL4265897, “Discovery of benzothiazole amides as potent antimycobacterial agents” (Bioorg Med Chem Lett, 2018)
Converted amounts (≈) assume the structure as drawn.

Tests used:
[1] = tested on: Mycobacteroides abscessus; assay: Antimycobacterial activity against Mycobacterium abscessus ATCC 19977 by CLSI method; type: functional
[2] = tested on: Mycobacterium avium; assay: Antimycobacterial activity against Mycobacterium avium 101 by CLSI method; type: functional
[3] = tested on: Mycobacterium intracellulare; assay: Antimycobacterial activity against Mycobacterium intracellulare 1956 by CLSI method; type: functional
[4] = tested on: Mycobacterium tuberculosis; assay: Antimycobacterial activity against Mycobacterium tuberculosis H37Rv MC2 6206 by CLSI method; type: functional
[5] = tested on: Mycobacteroides abscessus; assay: Antimycobacterial activity against Mycobacterium abscessus 1 by CLSI method; type: functional
[6] = tested on: Mycobacteroides abscessus; assay: Antimycobacterial activity against Mycobacterium abscessus 21 by CLSI method; type: functional
[7] = tested on: Mycobacteroides abscessus; assay: Antimycobacterial activity against Mycobacterium abscessus 79 by CLSI method; type: functional
[8] = tested on: Mycobacteroides abscessus; assay: Antimycobacterial activity against Mycobacterium abscessus 103 by CLSI method; type: functional
[9] = tested on: Mycobacteroides abscessus; assay: Antimycobacterial activity against Mycobacterium massiliense 119 by CLSI method; type: functional, Mycobacterium abscessus subsp. massiliense
[10] = tested on: Mycobacteroides chelonae; assay: Antimycobacterial activity against Mycobacterium chelonae 93 by CLSI method; type: functional
[11] = tested on: Mycolicibacterium fortuitum; assay: Antimycobacterial activity against Mycobacterium fortuitum 41 by CLSI method; type: functional
[12] = tested on: Mycolicibacterium peregrinum; assay: Antimycobacterial activity against Mycobacterium peregrinum ATCC 700686 by CLSI method; type: functional

SMILES	MIC [1]	MIC [2]	MIC [3]	MIC [4]	MIC [5]	MIC [6]	MIC [7]	MIC [8]	MIC [9]	MIC [10]	MIC [11]	MIC [12]
O=C(Nc1nc2ccc(OC(F)(F)F)cc2s1)C1CCCCC1	32 µg/mL (≈ 92.9 µM)	> 64 µg/mL	> 64 µg/mL	64 µg/mL (≈ 186 µM)	> 64 µg/mL	16 µg/mL (≈ 46.5 µM)	> 64 µg/mL	> 64 µg/mL	> 64 µg/mL	> 64 µg/mL	> 64 µg/mL	> 64 µg/mL
O=C(Nc1nc2ccc(C(F)(F)F)cc2s1)C1CCC2(CC1)CC2	32 µg/mL (≈ 90.3 µM)	64 µg/mL (≈ 181 µM)	> 64 µg/mL	32 µg/mL (≈ 90.3 µM)	8 µg/mL (≈ 22.6 µM)	16 µg/mL (≈ 45.1 µM)	16 µg/mL (≈ 45.1 µM)		8 µg/mL (≈ 22.6 µM)	4 µg/mL (≈ 11.3 µM)	> 64 µg/mL	> 64 µg/mL
CC1CC(C(=O)Nc2nc3cc(Br)ccc3s2)CC(C)(C)C1 (stereo unspecified)	32 µg/mL (≈ 83.9 µM)	> 64 µg/mL	> 64 µg/mL		32 µg/mL (≈ 83.9 µM)	16 µg/mL (≈ 42 µM)	16 µg/mL (≈ 42 µM)	16 µg/mL (≈ 42 µM)	64 µg/mL (≈ 168 µM)	16 µg/mL (≈ 42 µM)	16 µg/mL (≈ 42 µM)	4 µg/mL (≈ 10.5 µM)
O=C(Nc1nc2ccc(C(F)(F)F)cc2s1)C1CCCC2(CC2)C1 (stereo unspecified)	4 µg/mL (≈ 11.3 µM)	> 64 µg/mL	> 64 µg/mL		8 µg/mL (≈ 22.6 µM)	2 µg/mL (≈ 5.64 µM)	1 µg/mL (≈ 2.82 µM)		2 µg/mL (≈ 5.64 µM)	1 µg/mL (≈ 2.82 µM)	> 64 µg/mL	1 µg/mL (≈ 2.82 µM)
CC1CC(C(=O)Nc2nc3ccc(N(C)C)cc3s2)CC(C)(C)C1 (stereo unspecified)	32 µg/mL (≈ 92.6 µM)	> 64 µg/mL	> 64 µg/mL		> 64 µg/mL	16 µg/mL (≈ 46.3 µM)	8 µg/mL (≈ 23.2 µM)	64 µg/mL (≈ 185 µM)	4 µg/mL (≈ 11.6 µM)	2 µg/mL (≈ 5.79 µM)	8 µg/mL (≈ 23.2 µM)	2 µg/mL (≈ 5.79 µM)
CC1CC(C(=O)Nc2nc3c(Cl)cccc3s2)CC(C)(C)C1 (stereo unspecified)	16 µg/mL (≈ 47.5 µM)	> 64 µg/mL	16 µg/mL (≈ 47.5 µM)		2 µg/mL (≈ 5.94 µM)	2 µg/mL (≈ 5.94 µM)	4 µg/mL (≈ 11.9 µM)		1 µg/mL (≈ 2.97 µM)	2 µg/mL (≈ 5.94 µM)	4 µg/mL (≈ 11.9 µM)	1 µg/mL (≈ 2.97 µM)
CC12CCCC(C(=O)Nc3nc4c(F)c(F)c(F)cc4s3)(CCC1)C2		> 8 µg/mL	8 µg/mL (≈ 21.7 µM)	≤ 0.12 µg/mL	0.25 µg/mL (≈ 0.679 µM)	0.12 µg/mL (≈ 0.326 µM)	0.12 µg/mL (≈ 0.326 µM)	0.12 µg/mL (≈ 0.326 µM)	0.12 µg/mL (≈ 0.326 µM)	0.12 µg/mL (≈ 0.326 µM)	0.5 µg/mL (≈ 1.36 µM)	0.06 µg/mL (≈ 0.163 µM)
CC12CC3CC(C)(C1)CC(C(=O)Nc1nc4ccccc4s1)(C3)C2	1 µg/mL (≈ 2.94 µM)	2 µg/mL (≈ 5.87 µM)	2 µg/mL (≈ 5.87 µM)	4 µg/mL (≈ 11.7 µM)								
CC1CC(C(=O)Nc2nc3c(F)c(F)c(F)cc3s2)CC(C)(C)C1 (stereo unspecified)		> 64 µg/mL	> 64 µg/mL	1 µg/mL (≈ 2.81 µM)	0.5 µg/mL (≈ 1.4 µM)	0.5 µg/mL (≈ 1.4 µM)	0.25 µg/mL (≈ 0.701 µM)	0.5 µg/mL (≈ 1.4 µM)	0.5 µg/mL (≈ 1.4 µM)	0.25 µg/mL (≈ 0.701 µM)	0.25 µg/mL (≈ 0.701 µM)	0.12 µg/mL (≈ 0.337 µM)
CC12CCCC(C(=O)Nc3nc4cc(Br)ccc4s3)(CCC1)C2		4 µg/mL (≈ 10.2 µM)	1 µg/mL (≈ 2.54 µM)	≤ 0.12 µg/mL	0.25 µg/mL (≈ 0.636 µM)	0.06 µg/mL (≈ 0.153 µM)	0.06 µg/mL (≈ 0.153 µM)	0.06 µg/mL (≈ 0.153 µM)	0.06 µg/mL (≈ 0.153 µM)	0.06 µg/mL (≈ 0.153 µM)	0.03 µg/mL (≈ 0.0763 µM)	≤ 0.07 µg/mL
CC12CCCC(C(=O)Nc3nc4ccc(Cl)cc4s3)(CCC1)C2		8 µg/mL (≈ 22.9 µM)	4 µg/mL (≈ 11.5 µM)	0.5 µg/mL (≈ 1.43 µM)	0.25 µg/mL (≈ 0.717 µM)	0.12 µg/mL (≈ 0.344 µM)	0.12 µg/mL (≈ 0.344 µM)	0.12 µg/mL (≈ 0.344 µM)	0.12 µg/mL (≈ 0.344 µM)	0.25 µg/mL (≈ 0.717 µM)	0.25 µg/mL (≈ 0.717 µM)	0.12 µg/mL (≈ 0.344 µM)
CC1CCC(C(=O)Nc2nc3ccc(C(F)(F)F)cc3s2)CC1 (stereo unspecified)	64 µg/mL (≈ 187 µM)	> 64 µg/mL	> 64 µg/mL									
CC1(C)CCC(C(=O)Nc2nc3ccc(C(F)(F)F)cc3s2)CC1	> 64 µg/mL	64 µg/mL (≈ 180 µM)	64 µg/mL (≈ 180 µM)									
COc1ccc2nc(NC(=O)C3CC(C)CC(C)(C)C3)sc2c1 (stereo unspecified)	1 µg/mL (≈ 3.01 µM)	16 µg/mL (≈ 48.1 µM)	8 µg/mL (≈ 24.1 µM)	8 µg/mL (≈ 24.1 µM)	2 µg/mL (≈ 6.02 µM)	1 µg/mL (≈ 3.01 µM)	1 µg/mL (≈ 3.01 µM)		0.5 µg/mL (≈ 1.5 µM)	0.25 µg/mL (≈ 0.752 µM)	2 µg/mL (≈ 6.02 µM)	1 µg/mL (≈ 3.01 µM)
CC1CC(C(=O)Nc2nc3cc(F)ccc3s2)CC(C)(C)C1 (stereo unspecified)	1 µg/mL (≈ 3.12 µM)	16 µg/mL (≈ 49.9 µM)	16 µg/mL (≈ 49.9 µM)		2 µg/mL (≈ 6.24 µM)	0.5 µg/mL (≈ 1.56 µM)	2 µg/mL (≈ 6.24 µM)		2 µg/mL (≈ 6.24 µM)	2 µg/mL (≈ 6.24 µM)	2 µg/mL (≈ 6.24 µM)	4 µg/mL (≈ 12.5 µM)
CC1CC(C(=O)Nc2nc3ccc(SC(F)(F)F)cc3s2)CC(C)(C)C1 (stereo unspecified)	16 µg/mL (≈ 39.8 µM)	> 64 µg/mL	> 64 µg/mL		2 µg/mL (≈ 4.97 µM)	0.5 µg/mL (≈ 1.24 µM)	64 µg/mL (≈ 159 µM)	0.5 µg/mL (≈ 1.24 µM)	0.25 µg/mL (≈ 0.621 µM)	0.12 µg/mL (≈ 0.298 µM)	> 64 µg/mL	8 µg/mL (≈ 19.9 µM)
O=C(Nc1nc2ccc(C(F)(F)F)cc2s1)C1CC2CCC1C2 (stereo unspecified)	> 64 µg/mL	32 µg/mL (≈ 94 µM)	32 µg/mL (≈ 94 µM)									
CC1CC(C(=O)Nc2nc3ccc(F)cc3s2)CC(C)(C)C1 (stereo unspecified)		8 µg/mL (≈ 25 µM)	8 µg/mL (≈ 25 µM)	4 µg/mL (≈ 12.5 µM)	0.5 µg/mL (≈ 1.56 µM)	0.5 µg/mL (≈ 1.56 µM)	0.5 µg/mL (≈ 1.56 µM)	0.25 µg/mL (≈ 0.78 µM)	0.25 µg/mL (≈ 0.78 µM)	0.25 µg/mL (≈ 0.78 µM)	0.25 µg/mL (≈ 0.78 µM)	0.06 µg/mL (≈ 0.187 µM)
CC1CC(C(=O)Nc2nc3ccccc3s2)CC(C)(C)C1 (stereo unspecified)		8 µg/mL (≈ 26.5 µM)	8 µg/mL (≈ 26.5 µM)	8 µg/mL (≈ 26.5 µM)	2 µg/mL (≈ 6.61 µM)	2 µg/mL (≈ 6.61 µM)	1 µg/mL (≈ 3.31 µM)	1 µg/mL (≈ 3.31 µM)	2 µg/mL (≈ 6.61 µM)	1 µg/mL (≈ 3.31 µM)	1 µg/mL (≈ 3.31 µM)	0.5 µg/mL (≈ 1.65 µM)
